Measured values published in patent US20250059187A1, “COVALENTLY BINDING INHIBITORS OF G12S, G12D AND/OR G12E MUTANTS OF K-RAS GTPASE” (The Regents of the University of California, priority 2021, published 2025).

Legend:
[1] = test system: non-G12D mutation cancer cell lines (H1299, HCT116, A549, A375); test: Growth inhibition of non-G12D mutation cancer cell lines; type: cell-based
Protocol: (§1) Cells were seeded into 96-well white flat bottom plates (1,000 cells/well) (Corning) and incubated overnight. Cells were treated with the indicated compounds in a nine-point threefold dilution series (100 μL final volume) and incubated for 72 h. Cell viability was assessed using a commercial CellTiter-Glo (CTG) luminescence-based assay (Promega). Briefly, the 96-well plates were equilibrated to room temperature before the addition of diluted CTG reagent […] (1:4 CTG reagent:PBS). Plates were placed on an orbital shaker for 30 min before recording luminescence using a Spark 20M (Tecan) plate reader.

[2] = test system: non-G12D mutation cell lines; test: In-cell covalent labeling by Western blot, non-G12D cell lines; type: cell-based
Protocol: (§2) Cells were passed for at least two generations after cryorecovery before they were used for assays. All cell lines were tested mycoplasma negative using MycoAlert™ Mycoplasma Detection Kit (Lonza). When indicated, cells were treated with drugs at 40-60% confluency at a final DMSO concentration of 1%. At the end of treatment period, cells were placed on ice. Unless otherwise indicated, adherent cells were washed once with ice-cold PBS (1 mL), scraped with a spatula, and pelleted by centrifugation (500×g, 5 min). Suspension cells were pelleted by centrifugation (500×g, 5 min), washed with 1 mL ice-cold PBS, and pelleted again. Cells were lysed in RIPA buffer supplemented with protease and phosphatase inhibitors (cOmplete and phosSTOP, Roche) on ice for 10 min. For RBD pulldown experiments, cells were lysed in Co-IP Lysis Buffer in lieu of RIPA buffer. Lysates were clarified by high-speed centrifugation (19,000×g, 10 min). Concentrations of lysates were determined with protein BCA assay (Thermo Fisher) and adjusted to 2 mg/mL with additional RIPA buffer (or Co-IP Lysis Buffer). […]
(§3) Unless otherwise noted, SDS-PAGE was run with Novex 12% Bis-Tris gel (Invitrogen) in MES running buffer (Invitrogen) at 200 V for 60 min following the manufacturer's instructions. […] The membrane was washed three times with TBST (5 min each wash) and imaged on a Li-COR Odyssey fluorescence imager.

K-Ras G12D [3] = molecular target: T1, K-Ras G12D (Homo sapiens, UniProt P01116, G12D); test: Covalent modification of test protein after incubation with compound; type: binding; details: 24-h incubation with 100 μM compound at 23° C. at pH 7.5
T1 construct: human K-Ras (G12D, aa 1-169); 6xHis tag + TEV cleavage site (N, cleaved yes); made in house; host or cells: E. coli BL21(DE3)

[4] = test system: AGS cell line (heterozygous KRAS^G12D/WT); test: In-cell covalent labeling by Western blot, AGS; type: cell-based
Protocol: as §2, §3

K-Ras(G13D) = molecular target: T2, K-Ras(G13D) (Homo sapiens, UniProt P01116, G13D); test: Covalent modification of recombinant K-Ras(G13D) by whole-protein mass spectrometry; type: binding; details: GDP and GppNHp state
T2 construct: human K-Ras (G13D, aa 1-169); 6xHis tag + TEV cleavage site (N, cleaved yes); made in house; host or cells: E. coli BL21(DE3)
Protocol: (§4) Test compounds were prepared as 100× stock solutions in DMSO. K-Ras proteins were diluted with SEC Buffer (20 mM HEPES 7.5, 150 mM NaCl, 1 mM MgCl2) to 400 nM or 1 μM. In a typical reaction, 0.5 μL 100× compound stock was mixed with 50 μL diluted K-Ras protein, and the resulting mixture was incubated for the desired amount of time. The extent of modification was assessed by electrospray mass spectrometry using a Waters Xevo G2-XS system equipped with an Acquity UPLC BEH C4 1.7 μm column. The mobile phase was a linear gradient of 5-95% acetonitrile/water+0.05% formic acid. For kinetic measurements, a 2× compound solution was first prepared in SEC Buffer, which was then mixed with 400 nM K-Ras(G12D) protein at 1:1 (v/v) ratio. Injection time stamps were used to calculate elapsed time.

K-Ras G12E [5] = molecular target: T3, K-Ras G12E (Homo sapiens, UniProt P01116, G12E); test: Covalent modification of recombinant K-Ras(G12E) by whole-protein mass spectrometry; type: binding; details: GDP and GppNHp state
T3 construct: human K-Ras (G12E, aa 1-169); 6xHis tag + TEV cleavage site (N, cleaved yes); made in house; host or cells: E. coli BL21(DE3)
Protocol: as §4

[6] = test system: KRAS G12D mutation cancer cell lines; test: Growth inhibition of KRAS G12D cancer cell lines; type: cell-based
Protocol: as §1

[7] = test system: SW1990 (homozygous KRAS^G12D/G12D); test: In-cell covalent labeling and signaling by Western blot, SW1990; type: cell-based
Protocol: as §2, §3

[8] = test system: AsPC-1 (homozygous KRAS^G12D/G12D); test: In-cell covalent labeling by Western blot, AsPC-1; type: cell-based
Protocol: as §2, §3

BaF3/K-Ras(G12D) cells = test: Growth inhibition of BaF3/K-Ras(G12D) cells; type: cell-based, murine; details: Mus musculus, read-out: IC50, growth of BaF3/K-Ras(G12D) cells
Protocol: as §1

[9] = test system: Ba/F3 KRAS G12D cells + interleukin-3; test: Growth inhibition of Ba/F3 KRAS G12D cells co-treated with IL-3; type: cell-based, murine; details: IL-3, 10 ng/mL
Protocol: as §1

K-Ras G12D [10] = molecular target: T1, K-Ras G12D; test: Covalent modification of recombinant K-Ras(G12D) by whole-protein mass spectrometry; type: binding
Protocol: as §4

K-Ras G12E [11] = molecular target: T3, K-Ras G12E; test: Covalent modification of test protein after incubation with compound; type: binding; details: 24-h incubation with 100 μM compound at 23° C. at pH 7.5
wild type K-Ras = molecular target: T4, wild type K-Ras (Homo sapiens, UniProt P01116); test: as above; type: binding; details: 24-h incubation with 100 μM compound at 23° C. at pH 7.5
T4 construct: human K-Ras (wildtype, aa 1-169); 6xHis tag + TEV cleavage site (N, cleaved yes); made in house; host or cells: E. coli BL21(DE3)

C#Cc1c(F)ccc2cc(O)cc(-c3ncc4c(N5C[C@H]6CC[C@@H](C5)N6C(=O)[C@@H]5OC(=O)C5(C)C)nc(OC[C@@]56CCCN5C[C@H](F)C6)nc4c3F)c12 [(R)-7]
toxicity to non-G12D mutation cancer cell lines [1]: minimal toxicity to the latter cell lines up to 10 μM concentration | in-cell labeling of K-Ras [2]: none in non-G12D mutation cell lines | % covalent modification of K-Ras G12D (K-Ras G12D [3]): 100% | in-cell labeling of endogenous K-Ras [4]: only half of the two alleles | labeling of K-Ras G13D (K-Ras(G13D)): not that of WT, G12E, G12S, or G13D | labeling of K-Ras G12E (K-Ras G12E [5]): not that of WT, G12E, G12S, or G13D | growth of KRAS G12D cancer cell lines [6]: selectively inhibited growth of cancer cells lines harboring K-Ras(G12D) mutation | in-cell labeling of endogenous K-Ras(G12D) [7]: labeled endogenous K-Ras(G12D) completely | in-cell labeling of endogenous K-Ras(G12D) [8]: labeled endogenous K-Ras(G12D) completely | IC50 (BaF3/K-Ras(G12D) cells): 73 ± 17 nM | sensitivity of cells co-treated with interleukin-3 [9]: lost sensitivity to (R)-7 up to 10 μM | time to complete labeling of K-Ras(G12D)·GDP (K-Ras G12D [10]): ≤ 30 min | time to complete labeling of K-Ras(G12D)·GppNHp (K-Ras G12D [10]): ≤ 300 min | kinact/KI (K-Ras G12D [10]; read-out: kinact/KI against K-Ras(G12D)·GDP): 11000 M⁻¹ s⁻¹ | % covalent modification of K-Ras G12E (K-Ras G12E [11]): 0% | % covalent modification of wild type K-Ras (wild type K-Ras): 0%
